In patent US20250257361A1, “COMPOSITIONS AND METHODS FOR TREATING LIVER DISEASES WITH SIRNAS TARGETING SMYD2” (The Board of Regents of The University of Texas System, priority 2022, published 2025):

How the values were obtained:
[1] = test system: human SMYD2; experiment: SMYD2 luciferase reporter assay (dual Renilla/Firefly) for siRNA knockdown in Cos7 cells; type: cell-based; settings: psiCheck2 human Smyd2 luciferase reporter and siRNA co-transfected, 24 h, triplicates (Table 2; text says 48 hours)
[2] = target: SMYD2 (Homo sapiens, UniProt Q9NRG4); settings: cited from earlier work
Sequence of SMYD2 (Q9NRG4 whole entry, species assumed): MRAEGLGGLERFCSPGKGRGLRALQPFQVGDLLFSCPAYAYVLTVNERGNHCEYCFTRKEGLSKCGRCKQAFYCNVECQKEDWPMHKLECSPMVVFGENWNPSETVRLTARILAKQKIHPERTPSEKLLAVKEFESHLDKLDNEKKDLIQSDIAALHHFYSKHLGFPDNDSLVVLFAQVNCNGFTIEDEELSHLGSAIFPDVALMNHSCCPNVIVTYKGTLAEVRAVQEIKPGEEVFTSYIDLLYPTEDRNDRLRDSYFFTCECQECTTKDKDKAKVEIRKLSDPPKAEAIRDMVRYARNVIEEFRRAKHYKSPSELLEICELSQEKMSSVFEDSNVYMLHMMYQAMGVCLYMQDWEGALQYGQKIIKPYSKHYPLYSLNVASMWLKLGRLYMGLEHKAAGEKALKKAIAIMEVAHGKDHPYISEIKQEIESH

[3] = test system: WD NASH model
Procedure: FIG. 6A. Experimental design for pre-clinical testing of AZ505 in the WD NASH model. WD was given at 8 weeks of age for a total of 2 months. AZ505 treatment started one day after WD was initiated. Vehicle (2.5% DMSO in saline) or AZ505 (10 mg/kg in saline containing 2.5% DMSO) was given to mice intraperitoneally 3 times per week. FIG. 6B. Body weight of vehicle or AZ505 treated mice before and after 2 months of WD (n=15 and 14 mice). FIGS. 6C-6D. Liver weight and liver/body weight ratios of vehicle or AZ505 treated mice after 2 months of WD (n=15 and 14). FIG. 6E. Representative liver pictures and H&E staining of liver sections for vehicle or AZ505 treated mice after 2 months of WD. FIGS. 6F-6G. Liver function analysis using plasma ALT and AST (n=15 and 14). FIGS. 6H-6I. Liver triglyceride and cholesterol analysis (n=15 and 14). FIGS. 6J-6K. Plasma triglyceride and cholesterol analysis (n=15 and 14).
In order to determine if chemical SMYD2 inhibition could serve as orthogonal validation of the genetic findings, and to investigate the therapeutic potential of SMYD2 blockade in fatty liver disease, AZ505 was used. […] WD was fed to WT mice at 8 weeks of age, followed by treatment with vehicle control or AZ505 with a dose of 10 mg/kg (intraperitoneal injection) three times per week (FIG. 6A).
All mice were handled in accordance with the guidelines of the Institutional Animal Care and Use Committee at UT Southwestern. All experiments were done in an age and sex controlled fashion unless otherwise noted. C57BL/6 strain background mice were used for all the experiments. LSL-tdTomato (strain #007914) and Rosa-rtTA; TetO-Cas9 mice (#029415) were obtained from The Jackson Laboratory. Mice homozygous for both Rosa-rtTA and TetO-Cas9 were used to ensure a high Cas9 expression level in the liver. Western Diet (WD) used for NASH modeling is described in (Tsuchida et al., 2018). It is composed of high fat solid food (ENVIGO #TD.120528) and high sugar water containing 23.1 g/L d-fructose (Sigma-Aldrich #F0127) and 18.9 g/L d-glucose (Sigma-Aldrich #G8270).
Liver pieces were fixed in buffered formalin (Fisherbrand #245-685) for 24 h with gentle shaking at 4° C. and then transferred to 70% EtOH for another 24 h with shaking at 4° C. Paraffin embedding, liver sectioning (4 μm thickness), and H&E staining were performed at the UT Southwestern Tissue Management Shared Resource Core. For IHC staining, the following primary antibodies were used: Pten (CST #9559, IHC 1:200); Ki67 (Abcam #AB15580, IHC 1:200). IHC). IHC was performed as previously described (Zhu et al., 2010). TUNEL staining was performed on paraffin embedded liver sections using In Situ Cell Death Detection Kit, Fluorescein (Roche #C755B40) according to the manufacturer's protocol. QuPath software (https://qupath.github.io/) was used to quantify Ki67 and TUNEL staining.
The supernatant after centrifugation (plasma) was analyzed for AST, ALT, cholesterol, and triglyceride using VITROS MicroSlide Technology at the UT Southwestern Metabolic Phenotyping Core. 100-150 mg of liver per sample was weighted and used for lipid extraction and quantification at the UT Southwestern Metabolic Phenotyping Core.

[4] = AZ505 10 mg/kg i.p. 3 times per week vs. vehicle, 2 months WD

Compound: SMYD2 759-781: siRNA to human SMYD2; sense GGUUAAGAGAUUCUUAUUUCU (SEQ 71), antisense AAAUAAGAAUCUCUUAACCGG (SEQ 128) (listed as RNA, chemistry not given here)
- % mRNA remaining (compared to Ctrl siRNA) [1]: 37.7%

Compound: SMYD2 310: siRNA to human SMYD2; sense GGAGACUGUAAGACUAACAUU (SEQ 63), antisense UGUUAGUCUUACAGUCUCCUU (SEQ 120) (listed as RNA, chemistry not given here)
- % mRNA remaining (compared to Ctrl siRNA) [1]: 24.0%

Compound: SMYD2 493: siRNA to human SMYD2; sense CGGAUUCCCUGACAAUGAUUU (SEQ 66), antisense AUCAUUGUCAGGGAAUCCGUU (SEQ 123) (listed as RNA, chemistry not given here)
- % mRNA remaining (compared to Ctrl siRNA) [1]: 20.0%

Compound: SMYD2 1276-1298: siRNA to human SMYD2; sense GAUCAAACAGGAAAUUGAAAG (SEQ 72), antisense UUCAAUUUCCUGUUUGAUCUC (SEQ 129) (listed as RNA, chemistry not given here)
- % mRNA remaining (compared to Ctrl siRNA) [1]: 26.6%

Compound: SMYD2 1077: siRNA to human SMYD2; sense CCCUGCAAUAUGGACAGAAUU (SEQ 65), antisense UUCUGUCCAUAUUGCAGGGUU (SEQ 122) (listed as RNA, chemistry not given here)
- % mRNA remaining (compared to Ctrl siRNA) [1]: 72.7%

Compound: SMYD2 416-438: siRNA to human SMYD2; sense GAUAAGUUAGACAAUGAGAAG (SEQ 73), antisense UCUCAUUGUCUAACUUAUCCA (SEQ 130) (listed as RNA, chemistry not given here)
- % mRNA remaining (compared to Ctrl siRNA) [1]: 28.5%

Compound: SMYD2 758-780: siRNA to human SMYD2; sense CGGUUAAGAGAUUCUUAUUUC (SEQ 75), antisense AAUAAGAAUCUCUUAACCGGU (SEQ 132) (listed as RNA, chemistry not given here)
- % mRNA remaining (compared to Ctrl siRNA) [1]: 38.8%

Compound: SMYD2 706-728: siRNA to human SMYD2; sense GGUUUUUACCAGCUAUAUUGA (SEQ 70), antisense AAUAUAGCUGGUAAAAACCUC (SEQ 127) (listed as RNA, chemistry not given here)
- % mRNA remaining (compared to Ctrl siRNA) [1]: 53.2%

Compound: SMYD2 767-789: siRNA to human SMYD2; sense GAUUCUUAUUUCUUUACCUGU (SEQ 76), antisense AGGUAAAGAAAUAAGAAUCUC (SEQ 133) (listed as RNA, chemistry not given here)
- % mRNA remaining (compared to Ctrl siRNA) [1]: 46.4%

Compound: SMYD2 750-772: siRNA to human SMYD2; sense GAAAUGACCGGUUAAGAGAUU (SEQ 78), antisense UCUCUUAACCGGUCAUUUCUA (SEQ 135) (listed as RNA, chemistry not given here)
- % mRNA remaining (compared to Ctrl siRNA) [1]: 26.5%

Compound: SMYD2 1252-1274: siRNA to human SMYD2; sense CAAAGAUCAUCCAUAUAUUUC (SEQ 69), antisense AAUAUAUGGAUGAUCUUUGCC (SEQ 126) (listed as RNA, chemistry not given here)
- % mRNA remaining (compared to Ctrl siRNA) [1]: 13.1%

Compound: SMYDS 588: siRNA to human SMYD2; sense CAGCGAUAUUUCCUGAUGUUU (SEQ 67), antisense ACAUCAGGAAAUAUCGCUGUU (SEQ 124) (listed as RNA, chemistry not given here)
- % mRNA remaining (compared to Ctrl siRNA) [1]: 26.3%

Compound: SMYD2 1078: siRNA to human SMYD2; sense CCUGCAAUAUGGACAGAAAUU (SEQ 62), antisense UUUCUGUCCAUAUUGCAGGUU (SEQ 119) (listed as RNA, chemistry not given here)
- % mRNA remaining (compared to Ctrl siRNA) [1]: 107.5%

Compound: SMYD2 1251-1273: siRNA to human SMYD2; sense GCAAAGAUCAUCCAUAUAUUU (SEQ 77), antisense AUAUAUGGAUGAUCUUUGCCG (SEQ 134) (listed as RNA, chemistry not given here)
- % mRNA remaining (compared to Ctrl siRNA) [1]: 30.0%

Compound: SMYD2 675: siRNA to human SMYD2; sense GAGCUGUACAGGAAAUCAAUU (SEQ 64), antisense UUGAUUUCCUGUACAGCUCUU (SEQ 121) (listed as RNA, chemistry not given here)
- % mRNA remaining (compared to Ctrl siRNA) [1]: 121.4%

Compound: SMYD2 894: siRNA to human SMYD2; sense CACGCAACGUCAUUGAAGAUU (SEQ 68), antisense UCUUCAAUGACGUUGCGUGUU (SEQ 125) (listed as RNA, chemistry not given here)
- % mRNA remaining (compared to Ctrl siRNA) [1]: 18.3%

Compound: SMYD2 736: siRNA to human SMYD2; sense CCCAACGGAAGAUAGAAAUUU (SEQ 61), antisense AUUUCUAUCUUCCGUUGGGUU (SEQ 118) (listed as RNA, chemistry not given here)
- % mRNA remaining (compared to Ctrl siRNA) [1]: 115.1%

Compound: SMYD2 757: siRNA to human SMYD2; sense CCGGUUAAGAGAUUCUUAUUU (SEQ 59), antisense AUAAGAAUCUCUUAACCGGUU (SEQ 116) (listed as RNA, chemistry not given here)
- % mRNA remaining (compared to Ctrl siRNA) [1]: 82.3%

Compound: SMYD2 1082-1104: siRNA to human SMYD2; sense CAAUAUGGACAGAAAAUCAUU (SEQ 74), antisense UGAUUUUCUGUCCAUAUUGCA (SEQ 131)
- % mRNA remaining (compared to Ctrl siRNA) [1]: 35.2%

Compound: SMYD2 1249: siRNA to human SMYD2; sense CGGCAAAGAUCAUCCAUAUUU (SEQ 60), antisense AUAUGGAUGAUCUUUGCCGUU (SEQ 117) (listed as RNA, chemistry not given here)
- % mRNA remaining (compared to Ctrl siRNA) [1]: 110.9%

Compound: O=C1COc2c(CCNCCN(C(=O)CCNCCc3ccc(Cl)c(Cl)c3)C3CCCCC3)ccc(O)c2N1 [AZ505]
- IC50 ([2]; SMYD2): 120 nM
- selectivity for SMYD2 [2]: > 600 fold
- body weight [3, 4]: significant reductions
- liver appearance [3, 4]: Smaller, less pale livers
- liver cholesterol [3, 4]: modest increase
- liver triglycerides [3, 4]: significant decrease
- liver weight [3, 4]: significant reductions
- liver/body weight ratios [3, 4]: significant reductions
- plasma lipids (triglyceride and cholesterol) [3, 4]: modest increase
- steatosis (liver histology, H&E) [3, 4]: dramatically decreased steatosis
- transaminitis (plasma ALT and AST) [3, 4]: improved
- fatty liver disease (overall effect) ([3]; WD NASH model, AZ505 10 mg/kg i.p. 3 times per week, 2 months): ameliorates
- tolerability of dose ([3]; mouse, in vivo): well tolerated
